Measured values published in patent US6420558B1, “Aminopiperidine derivates as integrin αvβ3 antagonists” (Meiji Seika Kaisha, Ltd., priority 1998, dated 2002).

How the values were obtained:
[1] = biological target: T1, integrin αvβ3 (vitronectin receptor purified from the human placenta) (Homo sapiens, UniProt P05106+P06756); experiment: αvβ3 binding assay (vitronectin-vitronectin receptor binding assay); settings: vitronectin binding to human placenta vitronectin receptor; read-out: integrin αvβ3 antagonistic activity, IC50 value
T1 construct: a vitronectin receptor (protein content: 118 μg/ml) purified from the human placenta; from tissue; host or cells: human placenta
T1 sequence (P06756 31-889 limits assumed): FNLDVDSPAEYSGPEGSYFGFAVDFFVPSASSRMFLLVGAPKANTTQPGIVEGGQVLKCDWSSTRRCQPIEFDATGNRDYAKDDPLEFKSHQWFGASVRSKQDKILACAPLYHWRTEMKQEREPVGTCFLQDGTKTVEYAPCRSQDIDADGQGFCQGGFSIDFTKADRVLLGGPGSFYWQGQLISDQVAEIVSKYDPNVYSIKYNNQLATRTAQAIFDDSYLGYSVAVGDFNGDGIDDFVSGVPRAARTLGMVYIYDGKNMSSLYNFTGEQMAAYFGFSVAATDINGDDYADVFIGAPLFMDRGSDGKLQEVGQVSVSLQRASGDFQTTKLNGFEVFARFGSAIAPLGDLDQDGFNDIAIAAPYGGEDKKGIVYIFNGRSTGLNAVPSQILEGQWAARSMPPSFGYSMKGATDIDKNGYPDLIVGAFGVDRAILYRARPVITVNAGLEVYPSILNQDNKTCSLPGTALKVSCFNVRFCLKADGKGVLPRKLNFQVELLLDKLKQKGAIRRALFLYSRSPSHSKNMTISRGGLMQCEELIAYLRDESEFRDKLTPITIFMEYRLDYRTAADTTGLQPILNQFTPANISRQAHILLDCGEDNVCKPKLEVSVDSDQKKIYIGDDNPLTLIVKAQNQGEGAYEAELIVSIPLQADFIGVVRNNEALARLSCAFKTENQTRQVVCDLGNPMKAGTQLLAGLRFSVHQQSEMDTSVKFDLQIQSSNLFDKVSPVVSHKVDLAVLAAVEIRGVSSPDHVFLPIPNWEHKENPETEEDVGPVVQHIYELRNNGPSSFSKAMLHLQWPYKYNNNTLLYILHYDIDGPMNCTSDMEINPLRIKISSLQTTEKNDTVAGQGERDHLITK
T1 sequence (P06756 891-1048 limits assumed): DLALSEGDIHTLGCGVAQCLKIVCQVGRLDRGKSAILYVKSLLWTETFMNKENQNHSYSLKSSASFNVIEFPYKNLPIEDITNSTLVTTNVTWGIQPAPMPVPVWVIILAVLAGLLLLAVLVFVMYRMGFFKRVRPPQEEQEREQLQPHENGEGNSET
T1 sequence (P05106 27-788): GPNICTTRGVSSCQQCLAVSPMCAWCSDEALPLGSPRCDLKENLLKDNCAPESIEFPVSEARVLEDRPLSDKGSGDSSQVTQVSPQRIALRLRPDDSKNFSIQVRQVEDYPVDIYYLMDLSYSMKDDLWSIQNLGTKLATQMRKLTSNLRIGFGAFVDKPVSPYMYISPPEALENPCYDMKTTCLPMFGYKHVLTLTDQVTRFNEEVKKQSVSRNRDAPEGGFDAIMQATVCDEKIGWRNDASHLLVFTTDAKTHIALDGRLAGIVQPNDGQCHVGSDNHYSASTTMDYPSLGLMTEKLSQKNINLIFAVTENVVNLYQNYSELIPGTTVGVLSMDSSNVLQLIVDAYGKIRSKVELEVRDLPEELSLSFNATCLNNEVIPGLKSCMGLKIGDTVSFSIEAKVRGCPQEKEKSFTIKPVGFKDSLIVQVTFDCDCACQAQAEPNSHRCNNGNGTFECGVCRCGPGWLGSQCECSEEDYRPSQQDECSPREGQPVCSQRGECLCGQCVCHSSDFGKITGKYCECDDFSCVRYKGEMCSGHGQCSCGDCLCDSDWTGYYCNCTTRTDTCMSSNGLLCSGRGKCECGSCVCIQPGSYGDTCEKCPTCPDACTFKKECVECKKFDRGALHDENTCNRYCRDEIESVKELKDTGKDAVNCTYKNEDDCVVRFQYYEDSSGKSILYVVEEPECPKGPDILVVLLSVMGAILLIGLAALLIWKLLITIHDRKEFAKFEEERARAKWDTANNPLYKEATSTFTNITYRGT
Description: Integrin αvβ3 antagonistic activity was measured for the compounds according to the present invention in a vitronectin-vitronectin receptor binding assay system in accordance with the method of Kouns et al. (W. C. Kouns, D. Kirchhofer, P. Hadvary, A. Edenhofer, T. Weller, G. Pfenninger, H. R. Baumgartner, L. K. Jennings and B. Steiner, Blood, 80, 2539-2547 (1992)).
Specifically, a vitronectin receptor (protein content: 118 μg/ml) purified from the human placenta in accordance with the method of Pytela et al. (R. Pytela, M. D. Pierschbacher, S. Argraves, S. Suzuki, and E. Ruoslahti, Method in Enzymology, 144, 475-489 (1987)) was diluted 50 times with TBS (20 mM Tris-HCl, 150 mM NaCl, 1 mM CaCl2, 1 mM MgCl2, pH 7.4), and distributed and coated on wells (50 μl/well) of a plate (Maxisorp, Nunc, 96 well Immuno Plate). The plate was then allowed to stand at 4° C. for 1 day, washed twice with TBS (200 μl/well), and then subjected to blocking with TBS (150 μl/well) containing 1% bovine serum albumin (SIGMA) at 4° C. overnight. After washing twice with TBS (200 μl/well), 50 μl of vitronectin (CALBIOCHEM) adjusted to 0.2 μg/ml by the addition of TBS (TBS-Tween) containing 0.01% Tween-20 was mixed with 50 μl of each test compound adjusted to each concentration in wells, and a reaction was allowed to proceed at room temperature for 4 hr. After the completion of the reaction, the wells were washed five times with TBS-Tween. A solution prepared by diluting anti-vitronectin rabbit antiserum (CHEMICON) 500 times with TBS-Tween was added as a primary antibody in an amount of 50 μl/well, and a reaction was allowed to proceed at room temperature for 1.5 hr. After washing five times with 200 μl/well of TBS-Tween, a peroxidase (POD)-labeled anti-rabbit IgG antibody solution (CAPPEL) diluted 500 times with TBS-Tween was added as a secondary antibody in an amount of 50 μl/well, and a reaction was allowed to proceed at room temperature for 1.5 hr. After washing five times with TBS-Tween (200 μl/well), ABTS (2,2′-azino-bis(3-ethylbenzthiazoline-6-sulfonic acid), SIGMA) was adjusted to 1 mg/ml by the addition of a ten-fold diluted POD-buffer (ZYMED), and added in an amount of 50 μl/well, and a reaction was allowed to proceed for 5 to 10 min. A 0.1 M citric acid buffer (pH 4.3) containing 0.05% NaN3 was added in an amount of 50 μl/well to stop the reaction, followed by the measurement of the absorbance at 415 nm with a microplate reader (MTP 32, Corona Electric) (reference: 675 nm). The total binding was defined as the absorbance after a reaction using 50 μl of TBS-Tween instead of the test compound, and the non-specific binding (100% inhibition) was defined as the absorbance after a reaction using 50 μl of TBS-Tween containing 2×10^−3 M RGDS. The inhibition was calculated by the following equation: [formula]
IC50 was determined from a primary regression line of the logarithm of each concentration of the test compound and the logarithm of (100−inhibition)/inhibition.

GP IIb/IIIa = GP IIb/IIIa (Homo sapiens, UniProt P05106+P08514); experiment: GP IIb/IIIa antagonistic activity (method of Pharmacological Test 2 in WO 94/21599); assay type: binding
GP IIb/IIIa, sequence (P08514 32-887 limits assumed): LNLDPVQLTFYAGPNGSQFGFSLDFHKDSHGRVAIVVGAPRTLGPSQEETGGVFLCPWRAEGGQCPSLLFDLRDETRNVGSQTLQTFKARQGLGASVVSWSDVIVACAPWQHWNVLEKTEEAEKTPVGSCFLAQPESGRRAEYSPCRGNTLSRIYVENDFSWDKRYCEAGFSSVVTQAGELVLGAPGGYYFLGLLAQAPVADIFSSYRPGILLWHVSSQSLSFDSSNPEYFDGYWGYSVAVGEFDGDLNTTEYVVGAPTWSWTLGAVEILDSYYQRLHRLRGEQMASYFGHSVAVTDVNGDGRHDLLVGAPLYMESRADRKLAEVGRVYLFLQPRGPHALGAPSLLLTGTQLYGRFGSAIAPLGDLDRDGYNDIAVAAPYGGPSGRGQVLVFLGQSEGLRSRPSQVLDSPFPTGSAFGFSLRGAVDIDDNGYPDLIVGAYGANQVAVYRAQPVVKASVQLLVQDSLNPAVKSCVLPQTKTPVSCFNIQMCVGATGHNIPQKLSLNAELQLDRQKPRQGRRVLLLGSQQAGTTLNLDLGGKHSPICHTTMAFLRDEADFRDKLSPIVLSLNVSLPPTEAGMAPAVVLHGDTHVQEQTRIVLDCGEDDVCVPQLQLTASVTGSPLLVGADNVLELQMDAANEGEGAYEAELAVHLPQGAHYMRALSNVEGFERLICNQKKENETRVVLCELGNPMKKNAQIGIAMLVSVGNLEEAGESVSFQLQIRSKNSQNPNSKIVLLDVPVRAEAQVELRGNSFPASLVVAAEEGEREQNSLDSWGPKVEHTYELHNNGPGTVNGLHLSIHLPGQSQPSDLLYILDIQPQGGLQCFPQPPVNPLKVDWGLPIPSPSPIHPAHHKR
GP IIb/IIIa, sequence (P08514 891-1039 limits assumed): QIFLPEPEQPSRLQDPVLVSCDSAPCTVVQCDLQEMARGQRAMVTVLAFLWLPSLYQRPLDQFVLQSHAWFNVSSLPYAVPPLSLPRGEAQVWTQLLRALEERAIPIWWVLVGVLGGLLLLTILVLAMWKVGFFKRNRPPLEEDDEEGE
GP IIb/IIIa, sequence (P05106 27-788): as the sequence (P05106 27-788) above
Description: GP IIb/IIIa Antagonistic Activity and Human Platelet Aggregation Inhibitory Activity
GP IIb/IIIa antagonistic activity was measured for the compounds according to the present invention. The measurement of the GP IIb/IIIa antagonistic activity was carried out according to the method described in Pharmacological Test 2 in WO 94/21599.

[2] = test system: human vascular smooth muscle cells adhering to immobilized human vitronectin; experiment: Inhibitory activity against adhesion of human vascular smooth muscle cells to vitronectin; assay type: cell-based; settings: 1.5 h; human vitronectin-coated plate, 90 min
Description: Inhibitory Activity Against Adhesion of Human Vascular Smooth Muscle Cells to Vitronectin
The adhesion of human vascular smooth muscle cells =+to immobilized human vitronectin was measured in accordance with the method of Liaw et al. (Liaw L, Almeida M, Hart C E, Schwartz S M, and Giachelli C M, Circulation Research, 74 (2), 214-224 (1994)).
A Dulbecco's phosphate buffer (Dulbecco's PBS(−), Nissui Pharmaceutical Co., Ltd.) solution of human plasma-derived vitronectin (CALBIOCHEM) adjusted to a concentration of 4 μg/ml was first added to wells (50 μl/well) of a microplate (Maxisorp, Nunc), and a reaction for immobilization was allowed to proceed at 4° C. overnight. After washing twice with 150 μl of Dulbecco's phosphate buffer, a Dulbecco's phosphate buffer containing 10 mg/ml of bovine serum albumin (SIGMA) was added, followed by blocking at 37° C. for one hr. The assay plate was washed twice with 150 μl of Dulbecco's phosphate buffer.
Separately, human vascular smooth muscle cells cultivated at 37° C. under 5% carbon dioxide in a medium for vascular smooth muscle cells (Clonetics) were separated using a Dulbecco's phosphate buffer containing trypsin-EDTA (GIBCO BRL), washed with Dulbecco's phosphate buffer, and then suspended in a Dulbecco's modified Eagle's basal medium (Nissui Pharmaceutical Co., Ltd.) containing 0.1% bovine serum albumin to a concentration of 5×10^5/ml.
Next, 50 μl of a Dulbecco's modified Eagle's basal medium containing 10 mg/ml of bovine serum albumin with a medicament added thereto was added to the wells of the human vitronectin-coated assay microplate, followed by pre-cultivation under 5% carbon dioxide at 37° C. for 10 min. Thereafter, 50 μl of the medium with human vascular smooth muscle cells suspended therein was added thereto, and the plate was thoroughly stirred. A reaction was allowed to proceed under 5% carbon dioxide at 37° C. for 90 min. The reaction solution containing non-adherent cells were then removed, followed by washing three times with Dulbecco's phosphate buffer. For the adhered cells, 100 μl of a Dulbecco's phosphate buffer containing 4% paraformaldehyde (Wako Pure Chemical Industries, Ltd.) was added, and immobilization was allowed to proceed at room temperature for 10 min. Next, 100 μl of a Dulbecco's phosphate buffer containing 0.5% Toluidine Blue (Croma) and 4% paraformaldehyde was added, and staining was allowed to proceed at room temperature for 5 min, followed by thorough washing with distilled water. The inside of the wells was then air-dried, and a 1% aqueous sodium dodecylsulfate solution was then added to perform cytolysis. The absorbance of the microplate thus obtained was measured at 595 nm. […] The inhibition was calculated by the following equation. IC50 was determined from a primary regression line of the logarithm of each concentration of the test compound and the logarithm of (100−inhibition)/inhibition. [formula]

Structure (SMILES) | IC50 [1] | IC50 (GP IIb/IIIa) | IC50 [2]
Cc1cc(C)c(S(=O)(=O)N[C@@H](CNC(=O)c2ccc(N3CCC(Nc4nc5ccccc5[nH]4)CC3)cc2)C(=O)O)c(C)c1 [Example 31, 3-[4-{4-(1H-Benzimidazol-2-ylamino)piperidin-1-yl}benzoylamino]-(2S)-{(2,4,6-trimethylbenzenesulfonyl)amino}propionic acid] | ≤ 1 nM | ≤ 1 nM | –
O=C(NC[C@H](NS(=O)(=O)c1ccc(F)cc1)C(=O)O)c1ccc(N2CCC(Nc3nc4ccccc4[nH]3)CC2)cc1 [Example 33, 3-[4-{4-(1H-Benzimidazol-2-ylamino)piperidin-1-yl}benzoylamino]-(2S)-{(4-fluoro-benzenesulfonyl)amino}propionic acid] | ≤ 1 nM | ≤ 1 nM | –
O=C(NC[C@H](NS(=O)(=O)c1ccc([N+](=O)[O-])cc1)C(=O)O)c1ccc(N2CCC(Nc3nc4ccccc4[nH]3)CC2)cc1 [Example 35, 3-[4-{4-(1H-Benzimidazol-2-ylamino)piperidin-1-yl}benzoylamino]-(2S)-{(4-nitro-benzenesulfonyl)amino}propionic acid] | ≤ 1 nM | ≤ 1 nM | ≤ 70 nM
Nc1ccc(S(=O)(=O)N[C@@H](CNC(=O)c2ccc(N3CCC(Nc4nc5ccccc5[nH]4)CC3)cc2)C(=O)O)cc1 [Example 36, (2S)-(4-Aminobenzenesulfonyl)amino-3-[4-{4-(1H-benzimidazol-2-ylamino)piperidin-1-yl}benzoylamino]-propionic acid] | ≤ 1 nM | ≤ 1 nM | –
O=C(NC[C@H](NS(=O)(=O)c1ccccc1)C(=O)O)c1ccc(N2CCC(Nc3nc4ncccc4[nH]3)CC2)cc1 [Example 38, (2S)-Benzenesulfonylamino-3-[4-[4-{(1H-imidazo[4,5-b]pyridin-2-yl)amino}piperidin-1-yl]benzoyl-amino]propionic acid] | ≤ 1 nM | ≤ 1 nM | –
O=C(NC[C@H](NS(=O)(=O)c1ccccc1)C(=O)O)c1ccc(N2CCC(NC3=NCCCN3)CC2)c(F)c1F [Example 57, (2S)-Benzenesulfonylamino-3-[2,3-difluoro-4-{4-(1,4,5,6-tetrahydropyrimidin-2-ylamino)piperidin-1yl}benzoylamino]propionic acid] | ≤ 1 nM | ≤ 1 nM | ≤ 70 nM
COc1ccc(S(=O)(=O)N[C@@H](CNC(=O)c2ccc(N3CCC(NC4=NCCCN4)CC3)c(F)c2)C(=O)O)cc1 [Example 73, 3-[3-Fluoro-4-{4-(1,4,5,6-tetrahydropyrimidin-2-ylamino)piperidin-1-yl}benzoyl-amino]-(2S)-{(4-methoxybenzenesulfonyl)amino}propionic acid] | ≤ 1 nM | ≤ 1 nM | –
O=C(NC[C@H](NS(=O)(=O)c1ccc(O)cc1)C(=O)O)c1ccc(N2CCC(NC3=NCCCN3)CC2)c(F)c1 [Example 75, 3-[3-Fluoro-4-{4-(1,4,5,6-tetrahydropyrimidin-2-ylamino)piperidin-1-yl}benzoyl-amino]-(2S)-{(4-hydroxybenzenesulfonyl)amino}propionic acid] | ≤ 1 nM | ≤ 1 nM | ≤ 70 nM
O=C(O)c1ccc(S(=O)(=O)N[C@@H](CNC(=O)c2ccc(N3CCC(N=C4NCCCN4)CC3)c(F)c2)C(=O)O)cc1 [Example 78, (2S)-(4-Carboxybenzenesulfonyl)amino-3-[3-fluoro-4-{4-(1.4.5.6-tetrahydropyrimidin-2-ylamino)-piperidin-1-yl}benzoylamino]propionic acid] | ≤ 1 nM | ≤ 1 nM | –
COc1cc(C(=O)NC[C@H](NS(=O)(=O)c2ccccc2)C(=O)O)ccc1N1CCC(NC2=NCCCN2)CC1 [Example 93, (2S)-Benzenesulfonylamino-3-[3-methoxy-4-{4-(1,4,5,6tetrahydropyrimidin-2-ylamino)piperidin-1-yl}-benzoylamino]propionic acid] | ≤ 1 nM | ≤ 1 nM | ≤ 70 nM
O=C(NC[C@H](NS(=O)(=O)c1ccccc1)C(=O)O)c1ccc(N2CCC(N=C3NCCCN3)CC2)c(O)c1 [Example 95, (2S)-Benzenesulfonylamino-3-[3-hydroxy-4-{4-(1,4,5,6tetrahydropyrimidin-2-ylamino)piperidin-1-yl}-benzoylamino]propionic acid] | ≤ 1 nM | ≤ 1 nM | –
